Results on five molecules are retold here after USRE38825E1, “Glyphosate tolerant plants” (Monsanto Technology LLC, priority 1990, dated 2005).

Series [1] deals with most plant species. The note with it: Franz, 1985; cited from earlier work.
Series [2] relates to most plant species. The note with it: in vivo; cited from earlier work.
Series [3] has as its system glyphosate oxidoreductase. Description: Glyphosate oxidoreductase activity in isolated chloroplasts from transgenic tobacco. The note with it: substrate 50 mM; 30 minute assays; without ubiquinone; chloroplasts of plants #22844, 22854, 22886, 22887. Format: biochemical, Nicotiana tabacum.
Series [4] deals with LBAA glyphosate oxidoreductase variant v.247 (v1v2v3: GLY84, ARG153, ARG334), SEQ ID NO:18 (Ochrobactrum sp. G-1, UniProt D2KI28, H334R/K153R/S2A/S84G). Description: Kinetic analysis of glyphosate oxidoreductase variant v.247. The conditions noted are these: v.247. Format: biochemical, bacterial isolate LBAA (Pseudomonas strain LBAA). On the procedure: The mutagenesis procedure used was that of Mn++-poisoned PCR and the template was a linearized glyphosate oxidoreductase gene plasmid containing the synthetic glyphosate oxidoreductase gene (SEQ ID NO:8). The oligonucleotide primers used were homologous to regions in the vector and flanking the glyphosate oxidoreductase gene. The PCR conditions employed were as follows: 1 minute at 94° C., 2 minutes at 55° C., and 3 minutes at 72° C. and with 35 cycles. A 5:1 ratio of dCTP+dGTP+TTP to dATP was used. The reactions contained MnCl2 at 125, 250, 375, or 500 μM. After the reaction, the amplified product was recloned into a vector containing a weak E. coli promoter. This vector was a pBR327 derivative containing the araBAD promoter and suitable cloning sites. One hundred colonies from this cloning step were then screened in E. coli GB993 for improved glyphosate tolerance and utilization phenotypes in media composed of MOPS minimal medium with glyphosate and Pi or with glyphosate alone, respectively. Growth rates were determined by measuring A550 over a 96 hour period. […] The glyphosate oxidoreductase gene was recloned into the expression vector portion and this phenotype verified. All kinetic analysis was performed on crude E. coli lysates. Putative glyphosate oxidoreductase variant proteins were overexpressed after subcloning the NcoI/HindIII variant glyphosate oxidoreductase gene into PrecA-gene10L expression vector. For overexpression in PrecA-gene10L constructs, GB993 cells containing the vector were induced at a Klett=110-120 in M9 minimal medium with 50 μg/ml nalidixic acid and allowed to grow for 2.5 hours at 37° C. with vigorous shaking. Cells were harvested by centrifugation at 4000 g, 5 minutes at 4° C., and resuspend in 100 mM Tris-HCl, pH 7.1, 1 mM EDTA, 35 mM KCl, 20% glycerol, and 1 mM benzamidine at 3 ml/g cell pellet. Lysates were prepared by breaking the cells in a French press, twice, at 1000 psi. Insoluble debris was removed by centrifugation at 12000 g, 15 minutes at 4° C., and the supernatant was de-salted by passing over a PD-10 column (Sephadex G-25, Pharmacia). The void volume fraction was used as the source of enzyme for kinetic analysis. Protein concentrations were determined using the Bio-Rad protein dye-binding assay. Time and enzyme concentration courses were performed to determine linear ranges. […] Ten minutes was determined to be the optimal time for the enzyme assay using 10 μg lysate. After 10 minutes at 30° C. with shaking, 0.25 ml dinitrophenylhydrazine (DNPH) reagent (0.5 mg/ml in 0.5M HCl) was added and the reaction was allowed to proceed for an additional 5 minutes at 30° C. with shaking. A 1.5M NaOH solution (400 μl) was then added to the assay mix, and the reaction was continued for 5 minutes at 30° C. with shaking. Enzyme activity was determined from the amount of glyoxylate-DNPH adduct formed by measuring A520 against a standard of glyoxylate. Enzyme assays are performed in duplicate on at least two different single colony isolates of a putative glyphosate oxidoreductase variant. To determine Km and Vmax, enzyme assays were performed over a (0.2-2.0)×Km range of glyphosate concentrations. The Km and Vmax were determined from Lineweaver Burk, Eadie-Hofstee and hyperbolic kinetic plots. Vmax was estimated after determining the amount of immunoreactive glyphosate oxidoreductase protein in lysates by immunoblot analysis as described below. Immunoblot analysis was performed following SDS-PAGE and transfer of protein from the gel to nitrocellulose at 500 mA in a Hoeffer transfer apparatus in 25 mM Tris-HCl, 192 mM glycine containing 0.1% SDS and 25% methanol for 1-2 hours. After transfer, the nitrocellulose was incubated with 50 mM Tris-HCl, pH7.5, 0.9% NaCl, 0.01% Tween 20, 0.02% NaN3 containing 2% bovine serum albumin at room temperature with shaking for at least 30 minutes. […]

The target in series [5] is LBAA glyphosate oxidoreductase variant ARG 334 (His334 to Arg) (Ochrobactrum sp. G-1, UniProt D2KI28, H334R/S2A). Description: Kinetic analysis of glyphosate oxidoreductase variant ARG 334 (site-directed mutagenesis). Format: biochemical, bacterial isolate LBAA (Pseudomonas strain LBAA).
For series [6], the system named is glyphosate oxido-reductase from LBAA. Description: Glyphosate oxidoreductase reaction with substrates. It is filed as biochemical. The conditions noted are these: oxidation to glycine and glyoxylate. The source says: The enzyme glyphosate oxidoreductase catalyzes the cleavage of the C-N bond of glyphosate yielding aminomethyl phosphonate (AMPA) and glyoxylate as the reaction products. Under aerobic conditions, oxygen is utilized as a cosubstrate for the reaction. Other electron carriers such as phenazine methosulfate and ubiquinone stimulate the reaction under aerobic conditions. In the absence of oxygen, these compounds act as electron acceptors.
The enzymatic reaction can be assayed by oxygen uptake using an oxygen electrode. […] This enzyme has a stoichiometry of two moles of glyphosate oxidized per mole of oxygen consumed and produces two moles each of AMPA and glyoxylate as reaction products.
In addition to glyphosate, glyphosate oxido-reductase from LBAA oxidizes iminodiacetic acid (IDA) to glycine and glyoxylate.

Series [7] in a line: Kinetic analysis of glyphosate oxidoreductase variants in crude E. coli lysates (glyoxylate-DNPH assay), substrate glyphosate. The conditions noted are these: 25 mM glyphosate. Format: biochemical. The source says: Using this PCR approach, glyphosate oxidoreductase genes from a number of sources have been isolated. The presence of the glyphosate oxidoreductase activity was confirmed by cloning the glyphosate oxidoreductase gene from chromosomal DNA prepared from Pseudomonas sp. strain LBr (Jacob et al., 1988) and using primers homologous to the N- and C-termini of the LBAA glyphosate oxidoreductase gene and containing the following suitable restriction cloning sites: 5′-[…]-3′ (SEQ ID NO:13) and 5′-[…]-3′ (SEQ ID NO:14). Cyclotherm parameters used for these PCR reactions is as follows: • Denature at 94° C. for 1 minute; • Anneal at 60° C. for 2 minutes; • Polymerize at 72° C. for 3 minutes, • 30 cycles, no autoextension, linked to 4° C. incubation. […]
A population of bacteria was isolated from a fixed-bed immobilized cell column, which employed Mannville R-635 diatomaceous earth beads, by plating on Tryptone Soy Agar (Difco), containing cylcoheximide at 100 ug/ml, and incubating at 28° C. […] The glyphosate oxidoreductase activity was assayed and the Km for glyphosate also determined:
The mutagenesis procedure used was that of Mn++-poisoned PCR and the template was a linearized glyphosate oxidoreductase gene plasmid containing the synthetic glyphosate oxidoreductase gene (SEQ ID NO:8). […] Growth rates were determined by measuring A550 over a 96 hour period. […]

Read-outs that look alike come from different tables or passages of the source.

With `NCP(=O)(O)O` [AMPA, aminomethylphosphonate], the phytotoxicity result with most plant species [1] and in the series on most plant species [2] was “much less phytotoxic than glyphosate” in each case.
For `O=C(O)CNCP(=O)(O)O` [Glyphosate, N-phosphonomethyl-glycine], the “Specific Activity” value in series [3] is 92 nmol/min/mg.
For the molecule `O=C(O)CNCC(=O)O` [IDA, iminodiacetic acid], the Michaelis constant (Km) in series [4] (read-out: spp Km (IDA), pH 7.4, 30° C., crude E. coli lysate) turned out to be 700 µM; in series [5] (read-out: spp Km (IDA)) it was 500 µM. The “VmKm (IDA)” value in series [4] is on record as 1.0; in series [5], 1.2. Further, the “app Vm (IDA)” value in series [4] (pH 7.4, 30° C.) worked out at 0.7 U/mg; in series [5], 0.6 U/mg.
For `O=C(O)CNCC(=O)O` [Iminodiacetic acid, iminodiacetic acid], the “rate of the reaction” value in series [6] is given as “significantly faster than with glyphosate”. Moreover, the “Specific Activity” value in series [3] stood at 179 nmol/min/mg.

B1: v.247: glyphosate oxidoreductase variant (SEQ ID NO:18); GLY84, ARG153, ARG334 (protein)
chain: MAENHKKVGIAGAGIVGVCTALMLQRRGFKVTLIDPNPPGEGASFGNAGCFNGSSVVPMSMPGNLTSVPKWLLDPMGPLSIRFGYFPTIMPWLIRFLLAGRPNKVKEQAKALRNLIKSTVPLIKSLAEEADASHLIRHEGHLTVYRGEADFARDRGGWELRRLNGVRTQILSADALRDFDPNLSHAFTKGILIEENGHTINPQGLVTLLFRRFIANGGEFVSARVIGFETEGRALKGITTTNGVLAVDAAVVAAGAHSKSLANSLGDDIPLDTERGYHIVIANPEAAPRIPTTDASGKFIATPMEMGLRVAGTVEFAGLTAAPNWKRAHVLYTRARKLLPALAPASSEERYSKWMGFRPSIPDSLPVIGRATRTPDVIYAFGHGHLGMTGAPMTATLVSELLAGEKTSIDISPFAPNRFGIGKSKQTGPAS
Consider B1, for which the “fold higher specific activity for glyphosate oxidoreductase” value in series [7] is on record as 3-4 fold.

A word on the Km: it is the substrate concentration at which the rate is half of its maximum.
